From patent publication US6592893B1, “Transdermal patch and topical compositions comprising propylnorapomorphine” (priority 1998, dated 2003)

What was measured:
[1] = continuous subcutaneous infusion, 2-5 mg/hour; cited from earlier work
[2] = i.v., s.c., i.m., rectal, sublingual or intranasal route; cited from earlier work
[3] = toxicity compared with APO
[4] = half-life compared with APO
[5] = in vitro cell permeation study with guinea-pig skin (Type III patch); format: in vitro ADME
Experimental: Then, three particular non-limiting examples of the pharmaceutical composition used to form the matrix of a Type III patch will be illustrated (FIG. 3). The Type III patch, containing a matrix made up of these three types of formulations, will then be “tested” on guinea-pig skin, to analyse the permeation of the active principle, both with regard to the accumulation of active principle over 48 hours (FIG. 4) and with regard to the flow (also over 48 hours, FIG. 5).

[6] = activity compared with APO; conditions: greater than that of APO
Experimental: For this reason, when said compounds are given at suitable doses over 24 hours, effects which are rather more beneficial than those of APO are obtained.

[7] = accelerated stability test of the patch formulation; format: physicochemical; conditions: with antioxidant (sodium metabisulphite), 15 days at 40° C. and 75% RH

Row | Structure (SMILES) | local side effect at the infusion site [1] | latent period (attack) [2] | toxicity relative to APO [3] | half-life relative to APO [4] | skin permeability [5] | activity relative to APO [6] [times] | chemical stability in the formulation of the patch [7]
1 | CN1CCc2cccc3c2[C@H]1Cc1ccc(O)c(O)c1-3 [Apomorphine] | subcutaneous granulomas form around the infusion site | about 15 ′ |  |  |  |  | 
2 | CCCN1CCc2cccc3c2[C@H]1Cc1ccc(O)c(O)c1-3.Cl [Compound (1), R(−)-propylnorapomorphine hydrochloride] |  |  | lower | greater | sufficient | 10 | demonstrated
3 | CCCN1CCc2cccc3c2[C@@H]1Cc1ccc(O)c(O)c1-3.Cl [Compound (2), S(+)-propylnorapomorphine hydrochloride] |  |  | lower | greater |  | 10 | 
